Data reported in US20070015733A1, “Aryl Phosphate Derivatives of d4T having Activity Against Resistant HIV Strains” (Parker Hughes Institute, priority 1998, published 2007).

Legend:
[1] = Alkaline chemical hydrolysis rate (NaOH/methanol, HPLC); assay type: physicochemical; details: alkali hydrolysis
Method: All chemicals were purchased from Aldrich (Milwaukee, Wis.), with the exception of d4T which was synthesized in-house. All syntheses were performed under a nitrogen atmosphere. ^1H, ^13C, and ^31P NMR were obtained on a Varian Mercury 300 instrument at ambient temperature in CDCl3. FT-IR spectra were recorded on a Nicolet Protege 460 spectrometer. MALDI-TOF mass spectra were obtained by using a Finnigan MAT 95 system. UV spectra were recorded by using a Beckmann UV-VIS spectrophotometer (Model 3DU 74000) with a cell path length of 1 cm. HPLC purification was achieved by using a reverse-phase Lichrospher column (250×4 mm, Hewlett-Packard, RP-18, Cat # 79925) and an isocratic flow (1 ml/minute) consisting of water (70%) and acetonitrile (30%). The alkaline chemical hydrolysis was conducted at room temperature with sodium hydroxide (1 ml of 0.05N) and 3 ml of methanol solution containing 10 mg of the substrates in a Teflon lined reaction vial. […] The disappearance of the starting material was monitored as a function of time. […]
Statistical Analysis. The IC50 values were calculated from each set of triplicate wells using nonlinear regression modeling of the exponential form of the linearized equation. […] Hydrolysis rates were determined by fitting single exponential decay equations to the disappearance of the compound in alkali conditions. […]

[2] = test system: HIV-1 RT-MDR (NRTI-resistant, NNRTI-resistant); assay: p24 antigen assay, RT-MDR strain; assay type: cell-based; details: p24; read-out: IC50 RTMDR
HIV-1 HTLVIIIB = assay: microbe, parasite or virus in culture; details: read-out: IC50 HTLVIIIB; PBMNC, p24
Method: In vitro assays of anti-HIV-1 activity. Normal human peripheral blood mononuclear cells (PBMNC) from HIV-negative donors were cultured 72 hours in RPMI 1640 supplemented with 20% (v/v) heat-inactivated fetal bovine serum (FBS), 3% interleukin-2, 2 mM L-glutamine, 25 mM HEPES, 2 g/L NaHCO3, […], and […] prior to exposure to HIV-1 at a multiplicity of infection (MOI) of 0.1 during a 1 hour adsorption period at 37° C. in a humidified 5% CO2 atmosphere. Subsequently, cells were cultured in 96-well microtiter plates ([…]; 2×10^6 cells/mL) in the presence of various concentrations of d4T phosphoramidates and aliquots of culture supernatants were removed from the wells on the 7th day after infection for p24 antigen assays, as previously described (Uckun et al., 1998, Antimicrobial Agents and Chem., 42(2):383-388). The applied p24 enzyme immunoassay (EIA) was the unmodified kinetic assay commercially available from Coulter Corporation/Immunotech, Inc. (Westbrooke, Me.), which utilizes a murine mAb to HIV core protein coated onto microwell strips to which the antigen present in the test culture supernatant samples binds. Percent viral inhibition was calculated by comparing the p24 values from untreated infected cells (i.e., virus controls).
The anti-HIV activity of the compounds was examined by evaluating their ability to inhibit HIV replication in peripheral blood mononuclear cells using previously described procedures (Uckun et al., 1998, Antimicrobial Agents and Chem., 42(2):383-388). Percent inhibition of viral replication was calculated by comparing the p24 antigen levels from the test substance-treated infected cells with those from vehicle-treated infected cells.
Antiviral susceptibility assays. Phenotypic drug susceptibility studies of HIV-1 isolates and strains were performed by measuring the production of the p24 gag protein in peripheral blood mononuclear cells (PBMC) from seronegative healthy volunteers in the presence of increasing concentrations of the anti-HIV agent using the quantitative Coulter HIV-1 p24 antigen ezyme immunoassay (EIA) and HIV-1 p24 Antigen Kinetic Standard (Beckman Coulter), as previously described (Uckun, 1998, Antimicrobial Agents and Chemotherapy 37(4): 835-38). Informed consent was obtained from the blood donors according to DHHS guidelines using consent forms approved by the Institutional Review Board. In brief, PBMC were cultured for 72 h in RPMI 1640 medium (Gibco) supplemented with 20% (vol/vol) heat-inactivated fetal bovine serum, 5% human interleukin-2 (Zeptometrix), 2 mM L-glutamine, 25 mM HEPES, 2 g/L NaHCO3, 100 U/ml penicillin/streptomycin (Gibco), 50 μg/ml gentamicin (Gibco), and 5 μg/ml phytohemagglutinin-P (PHA-P) (Sigma) for 24-72 hours prior to exposure to HIV at a multiplicity of infection of 0.001-0.1 during a 1-h adsorbtion period at 37±1° C. in a humidified 5-7% CO2 atmosphere. Subsequently, cells were cultured in 96-well microtiter plates (100 μl/well; 2×10^6 cells/ml, triplicate wells) in the presence of the anti-HIV agents at 6-7 different concentrations ranging from 0.0001 μM to 100 μM, and 25 μL aliquots of culture supernatants were removed from the wells on day 6 after infection for p24 EIA, as previously described (Uckun, 1998, Antimicrobial Agents and Chemotherapy, 37(4):835-38). Controls included uninfected and untreated cells (background control) and infected but untreated (virus control) cells. The p24 EIA utilizes a murine monoclonal antibody to HIV core protein used to coat microwell strips to which the antigen present in the test culture supernatant samples binds. Percent inhibition of viral replication was calculated by comparing the p24 values from the test substance-treated infected cells with p24 values from untreated infected cells (i.e., virus controls). The IC50 values were determined using the Statview statistics program (SAS Institute, Inc.).

[3] = test system: HIV-1 A17 (Y181C mutant, NNRTI-resistant); assay: p24 antigen assay, A17 strain in PBMC; assay type: cell-based; details: PBMNC, p24; read-out: IC50 A17
Source text: (§1) In vitro assays of anti-HIV-1 activity.
(§2) Viruses. 20 primary clinical isolates with genotypic and/or phenotypic NRTI-resistance (isolated in the laboratory of D. Richman) and 10 clinical isolates with phenotypic stavudine (d4T) resistance (obtained through the AIDS Research and Reference Reagent Program, NIAID) were used in the current study. The HIV-1 strains HTLVIIIB (wildtype RT, NRTI-sensitive, NNRTI-sensitive), A17 (Y181 C mutant, NNRTI-resistant), A17-variant (Y181C+K103N mutant, NNRTI-resistant), and RT-MDR (M41 L, V106N, T215Y; NRTI-resistant, NNRTI-resistant) were also obtained from the AIDS Research and Reference Reagent Program, NIAID.
(§3) Antiviral susceptibility assays.

[4] = Octanol/water partition coefficient, shake flask method; assay type: physicochemical
Method: Partition Coefficients. The octanol/water partition coefficient was determined by the shake flask method. The phosphoramidate analogs were added to 2 ml of water and 2 ml of octanol in a glass vial. The mixture was shaken for 4 hours at room temperature. The two phases were carefully separated and filtered through a Millipore filter and analyzed by HPLC. The partition coefficient was calculated using the ratio of the area under the curve for octanol and water respectively.

[5] = test system: HIV-1 A17-variant (Y181C+K103N mutant, NNRTI-resistant); assay: p24 antigen assay, A17-variant strain in PBMC; assay type: cell-based; details: PBMNC, p24; read-out: IC50 A17V
Source text: as §1, §2, §3

In the case of `COC(=O)C(C)NP(=O)(OCC1C=CC(n2cc(C)c(=O)[nH]c2=O)O1)Oc1cccc(Br)c1` (centres unmarked) [Compound 9, 5′-[3-Bromophenylmethoxyalaninylphosphate]-2′,3′-didehydro-3′-deoxythymidine], the “Hydrolysis Rate” value [1] is reported as 0.0338 min⁻¹, the IC50 [2] is reported as 493 ± 285 nM and the IC50 (HIV-1 HTLVIIIB) is reported as 2 ± 2 nM. For the same molecule, the IC50 [3] was 42 ± 24 nM and the “Partition Coefficient (log P)” value [4] was 1.12.
With `COC(=O)C(C)NP(=O)(OCC1C=CC(n2cc(C)c(=O)[nH]c2=O)O1)Oc1ccccc1Cl` (centres unmarked) [Compound 13, 5′-[2-Chlorophenylmethoxyalaninylphosphate]-2′,3′-didehydro-3′-deoxythymidine] the “Hydrolysis Rate” value [1] was 0.0370 min⁻¹, the IC50 [5] was 15 ± 8 nM and the IC50 [2] was 187 ± 108 nM. The IC50 (HIV-1 HTLVIIIB) was 3 ± 1 nM, the IC50 [3] was 34 ± 20 nM and the “Partition Coefficient (log P)” value [4] was 0.84.
